Consider one compound from ChEMBL document CHEMBL4350985, “1,3-Dioxane as a scaffold for potent and selective 5-HT1AR agonist with in-vivo anxiolytic, anti-depressant and anti-nociceptive activity” (Eur J Med Chem, 2019).

Active and inactive are the calls of the source. No cut-off for these calls is given here.

Data set [1] has as its system SH-SY5Y. Nature of the data set: Neuroprotective activity against oligomycin A-induced cell death in human SH-SY5Y cells at 1 uM incubated for 24 hrs by MTT assay. In kind it is functional.
Data set [2] has as its system SH-SY5Y. Nature of the data set: Neuroprotective activity against rotenone-induced cell death in human SH-SY5Y cells at 1 uM incubated for 24 hrs by MTT assay. In kind it is functional.
The nature of data set [3]: Apparent permeability from apical to basolateral side in dog MDCK2-MDR1 cells incubated for 120 mins by UV-visible spectrophotometry. The class given is ADME, cell-based, Canis lupus familiaris. Conditions: MDCK-MDR1.
A short description of data set [4]: Apparent permeability from basolateral to apical side in dog MDCK2-MDR1 cells incubated for 120 mins by UV-visible spectrophotometry. Conditions: MDCK-MDR1. The class given is ADME, cell-based, Canis lupus familiaris.
Data set [5] can be described thus: Efflux ratio of apparent permeability from basolateral to apical side over apical to basolateral side in dog MDCK2-MDR1 cells incubated for 120 mins by UV-visible spctrophotometry. In kind it is ADME, cell-based, Canis lupus familiaris. Conditions: MDCK-MDR1.
Data set [6] in a line: Cmax in Sprague-Dawley rat plasma at 10 mg/kg, po measured upto 480 mins by LC/MS-MS analysis. On the set-up: dose 10 mg/kg, route oral. In kind it is ADME, organism-based.
The nature of data set [7]: Cmax in Sprague-Dawley rat brain at 10 mg/kg, po measured upto 480 mins by LC/MS-MS analysis. On the set-up: dose 10 mg/kg, route oral. Conditions: in vivo, 8 h. In kind it is ADME, organism-based.
Data set [8] in a line: Tmax in Sprague-Dawley rat brain at 10 mg/kg, po measured upto 480 mins by LC/MS-MS analysis. In kind it is ADME, organism-based.
Data set [9] is described as follows: AUC (0 to infinity) in Sprague-Dawley rat brain at 10 mg/kg, po measured upto 480 mins by LC/MS-MS analysis. In kind it is ADME, organism-based. On the set-up: dose 10 mg/kg, time infinity, route oral. The note with it: in vivo, 8 h.
Data set [10] has as its system Rattus norvegicus. Nature of the data set: Anxiolytic activity at Sprague-Dawley rat assessed as increase in number of open arm entries at 10 to 20 mg/kg, po by EPM test. The class given is functional, organism-based.
The subject of data set [11] is Rattus norvegicus. Nature of the data set: Anxiolytic activity in at Sprague-Dawley rat assessed as increase in time spent in central area of open field at 10 mg/kg, po by open field test. The class given is functional, organism-based.
Data set [12] concerns Rattus norvegicus. Nature of the data set: Anxiolytic activity in at Sprague-Dawley rat assessed as increase in number of entries into central area of open field at 10 mg/kg, po by open field test. In kind it is functional, organism-based.
In data set [13] the test system is Rattus norvegicus. Nature of the data set: Antidepressant activity in Sprague-Dawley rat assessed as decrease in time of immobilization at 10 and 20 mg/kg, po by forced swim test. In kind it is functional, organism-based.
Data set [14] concerns Rattus norvegicus. Nature of the data set: Antidepressant activity in Sprague-Dawley rat assessed as increase in time spent in swimming at 10 and 20 mg/kg, po by forced swim test. In kind it is functional, organism-based.
The subject of data set [15] is Rattus norvegicus. Nature of the data set: Antidepressant activity in Sprague-Dawley rat assessed as time spent on climbing at 5 to 20 mg/kg, po by forced swim test. In kind it is functional, organism-based.
Data set [16] has as its system Mus musculus. Nature of the data set: Antinociceptive activity in formalin-induced nociception pain Swiss […] mouse model assessed as decrease in perception of II phase of noxious stimulus at 10 mg/kg, ip by formalin test. The class given is functional, organism-based.
Data set [17] relates to Mus musculus. Nature of the data set: Antinociceptive activity in formalin-induced nociception pain Swiss […] mouse model assessed as perception of II phase of noxious stimulus at 10 mg/kg, ip co-administered with 3 mg/kg, ip 5-HT1AR antagonist WAY-100635 by formalin test. In kind it is functional, organism-based.

With `COc1ccccc1OCCNCC1COC(c2ccccc2)(c2ccccc2)OC1.O=C(O)C(=O)O`, the values for the Activity in data set [1] and in data set [2] were 83% and 61%, respectively. The Papp A→B at 2 h in [3] amounted to 26 ×10⁻⁶ cm/s. Also, the Papp B→A at 2 h in data set [4] came out at 12.6 ×10⁻⁶ cm/s. Besides, the efflux ratio at 2 h in data set [5] stood at 0.49. The Cmax is 95 nM in data set [6] and 157.9 nmol/g in data set [7]. For the same compound, the Tmax in data set [8] was 1 h. Besides, the AUC in data set [9] stood at 7173.4 nmol·min/g. Besides, the result in [10], in data set [11], in data set [12] and in data set [14] was Active. Further, the inhibition result in data set [13] and in [16] was “Active” each time. The result in data set [15] was inactive. Further, in data set [17], the inhibition result was “inactive”.

As a reminder, the Papp A→B is the apparent permeability from the apical to the basolateral side of a cell layer. By Papp B→A is commonly meant how fast a substance crosses the layer from the basolateral side. The efflux ratio is the permeability from basolateral to apical divided by that in the opposite direction, in the common usage. In general, Tmax refers to the time from dosing to the highest level.
